Usually IC50 stands for the concentration that gives 50% inhibition. Lower therefore signals greater potency in that assay. By inhibition is commonly meant the relative decrease from the control value, in per cent.

These results are taken from patent publication US11661419B2, “Benzimidazole derivative compounds and uses thereof” (Pfizer Inc., priority 2019, dated 2023).

The subject of test [1] is IL-2 in activated CD4+ human T-cells. Briefly: IL-2 inhibition in supernatants from activated CD4+ human T-cells (cisbio HTRF). Particulars: T-cell; geometric mean of count n; CD3/CD28-expanded human CD4+ T cells stimulated with ImmunoCult, 20 to 24 hrs. The class given is cell-based. The procedure:
IL-2-Inhibition Activity, IC50 (uM)
IL-2 inhibition activity in supernatants from activated CD4+ human T-cells was determined by measuring the effect of a test compound on the activity using the cisbio HTRF™ technology.
Human CD4+ T cells were activated with CD3/CD28 for 3 days and expanded for an additional 4-6 days (7 to 9 days total). On day 0, frozen CD4+ T cells were thawed, treated with CD3/CD28 Dynabeads, and incubated at 37° C./5% CO2. On day 3, the beads were removed, and the cells were diluted to 5×10^5 cells/cm^2, placed in G-Rex10 flask, and incubated at 37° C./5% CO2. On day 7 to day 9 the cells were removed from the G-Rex flasks, counted and diluted back to 1×10^6 cells/ml in standard tissue culture flask.
The expanded CD4+ T-cells were centrifuged at 300×g for 10 minutes and resuspended to 0.5 million cells per ml (30,000 cells/well). 60 μl of CD4+ T cells were added per well to a 384 well plate containing 0.1 μL of varying concentrations of test compound in DMSO. The plates were incubated for 15 min at 37° C./5% CO2. 20 μl of diluted ImmunoCult™ ([…] Technologies, 1:12.5 in T cell assay media) were added to all wells of the plate (1:50 final assay concentration). The plates were incubated for an additional 20 to 24 hrs at 37° C./5% CO2. The plates were centrifuged at 300×g for 10 minutes. 16 μL of supernatant was removed and combined with 4 μl of IL-2 HTRF Abs. (cisbio kit). Plates were incubated for 3 hours at RT and read with an EnVision plate reader at 665 nm and 615 nm wavelengths.
For orientation: Time-resolved FRET reads energy transfer from a long-lived donor to a nearby acceptor.

Test [2] concerns the target Tropomyosin receptor kinase A (TRKA, NTRK1) (Homo sapiens (Human), UniProt P04629). Briefly: TRKA (NTRK1) enzyme Z'-LYTE assay. The class given is biochemical. The following applies: arithmetic mean of count n; test compound 1 uM, ATP 1 mM. Here is the method: Tropomyosin Receptor Kinase a (TRKA) Activity, % Inhibition
TRKA, also known as neurotrophic tyrosine kinase receptor type 1 (NTKR1) activity was determined by measuring the effect of a test compound on the activity against the NTRK1 enzyme using the ThermoFisher Z'-LYTE Assay fluorescence-based coupled enzyme format (www.thermofisher.com/selectscreen). […] The resulting effect value for the tested compound was compared to the assay controls to determine the % inhibition (%).

The structures appear in SMILES notation.

Chain of Tropomyosin receptor kinase A (TRKA, NTRK1) (P04629 33-796): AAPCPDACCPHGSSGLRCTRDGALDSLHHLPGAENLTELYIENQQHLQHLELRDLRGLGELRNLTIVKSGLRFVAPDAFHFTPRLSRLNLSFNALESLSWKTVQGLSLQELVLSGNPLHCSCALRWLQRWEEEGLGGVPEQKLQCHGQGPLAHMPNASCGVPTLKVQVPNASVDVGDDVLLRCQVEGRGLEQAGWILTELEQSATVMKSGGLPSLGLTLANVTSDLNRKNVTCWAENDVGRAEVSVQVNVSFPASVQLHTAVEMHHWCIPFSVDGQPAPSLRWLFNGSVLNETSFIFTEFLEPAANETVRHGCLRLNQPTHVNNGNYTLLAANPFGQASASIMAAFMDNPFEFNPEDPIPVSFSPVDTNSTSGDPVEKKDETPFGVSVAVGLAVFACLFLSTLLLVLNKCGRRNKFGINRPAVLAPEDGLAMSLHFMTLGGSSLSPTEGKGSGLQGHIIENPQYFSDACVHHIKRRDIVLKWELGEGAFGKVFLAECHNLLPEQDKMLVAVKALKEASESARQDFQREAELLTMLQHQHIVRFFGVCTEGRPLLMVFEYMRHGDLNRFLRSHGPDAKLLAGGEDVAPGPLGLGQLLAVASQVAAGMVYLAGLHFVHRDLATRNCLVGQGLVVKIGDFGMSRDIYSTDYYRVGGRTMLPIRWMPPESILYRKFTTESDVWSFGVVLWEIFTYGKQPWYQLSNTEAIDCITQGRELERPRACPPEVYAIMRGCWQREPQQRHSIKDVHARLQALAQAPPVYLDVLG

For the molecule `C[C@@H](C(=O)N(C)c1cc(C(F)(F)F)c2[nH]c(-c3n[nH]c4c3C[C@@H]3C[C@]3(C)C4)nc2c1)N1CCOCC1` [Example 41, (S)—N-methyl-N-(2-((4aS,5aR)-5a-methyl-1,4,4a,5,5a,6-hexahydrocyclopropa[f]indazol-3-yl)-7-(trifluoromethyl)-1H-benzo[d]imidazol-5-yl)-2-morpholinopropanamide], in test [1], half-maximal inhibition (IC50) was put at 176 nM. In addition, the inhibition at 1 µM in test [2] is 96%.
As to `COCc1cc(N(C)C(=O)[C@H](C)N2CCOCC2)cc2nc(-c3n[nH]c4c3C[C@@H]3C[C@]3(C)C4)[nH]c12` [Example 42, (S)—N-(7-(methoxymethyl)-2-((4aS,5aR)-5a-methyl-1,4,4a,5,5a,6-hexahydrocyclopropa[f]indazol-3-yl)-1H-benzo[d]imidazol-5-yl)-N-methyl-2-morpholinopropanamide], the IC50 in test [1] is 200 nM. Moreover, in test [2], the inhibition at 1 µM turned out to be 98%.
The like results for `C[C@@H](C(=O)N(C)c1cc(Cl)c2[nH]c(-c3n[nH]c4c3C[C@@H]3C[C@]3(C)C4)nc2c1)N1CCOCC1` [Example 43, (S)—N-(7-chloro-2-((4aS,5aR)-5a-methyl-1,4,4a,5,5a,6-hexahydrocyclopropa[f]indazol-3-yl)-1H-benzo[d]imidazol-5-yl)-N-methyl-2-morpholinopropanamide] were, in that order, 171 nM and 96%.
In test [1], `CCc1cc(N(C)C(=O)[C@H](C)N2CCOCC2)cc2nc(-c3n[nH]c4c3C[C@@H]3C[C@]3(C)C4)[nH]c12` [Example 44, (S)—N-(7-ethyl-2-((4aS,5aR)-5a-methyl-1,4,4a,5,5a,6-hexahydrocyclopropa[f]indazol-3-yl)-1H-benzo[d]imidazol-5-yl)-N-methyl-2-morpholinopropanamide] returned an IC50 of 219 nM. The inhibition at 1 µM in test [2] is 94%.
The like results for `C[C@@H](C(=O)N(C)c1cc(CO)c2[nH]c(-c3n[nH]c4c3C[C@@H]3C[C@]3(C)C4)nc2c1)N1CCOCC1` [Example 45, (S)—N-(7-(hydroxymethyl)-2-((4aS,5aR)-5a-methyl-1,4,4a,5,5a,6-hexahydrocyclopropa[f]indazol-3-yl)-1H-benzo[d]imidazol-5-yl)-N-methyl-2-morpholinopropanamide] were, in that order, 365 nM and 97%.
The like results for `Cc1c(F)c(N(C)C(=O)[C@H](C)N2CCOCC2)cc2nc(-c3n[nH]c4c3C[C@@H]3C[C@]3(C)C4)[nH]c12` [Example 47, (S)—N-(6-fluoro-7-methyl-2-((4aS,5aR)-5a-methyl-1,4,4a,5,5a,6-hexahydrocyclopropa[f]indazol-3-yl)-1H-benzo[d]imidazol-5-yl)-N-methyl-2-morpholinopropanamide] were, in that order, 161 nM and 98%.
The like results for `C[C@@H](C(=O)N(C)c1cc(C(F)F)c2[nH]c(-c3n[nH]c4c3C[C@@H]3C[C@]3(C)C4)nc2c1)N1CCOCC1` [Example 48, (S)—N-(7-(difluoromethyl)-2-((4aS,5aR)-5a-methyl-1,4,4a,5,5a,6-hexahydrocyclopropa[f]indazol-3-yl)-1H-benzo[d]imidazol-5-yl)-N-methyl-2-morpholinopropanamide] were, in that order, 207 nM and 95%.
With `COCCOc1cc2[nH]c(-c3n[nH]c4c3C[C@@H]3C[C@]3(C)C4)nc2cc1N(C)C(=O)[C@H](C)N1CCOCC1` [Example 49, (S)—N-(6-(2-methoxyethoxy)-2-((4aS,5aR)-5a-methyl-1,4,4a,5,5a,6-hexahydrocyclopropa[f]indazol-3-yl)-1H-benzo[d]imidazol-5-yl)-N-methyl-2-morpholinopropanamide], in test [1], inhibition was half-maximal at 100 nM (IC50). Further, the inhibition at 1 µM in test [2] amounted to 98%.
Taken in the same sequence, the figures for `Cc1cc(N(C)C(=O)[C@H](C)N2CCOCC2)cc2nc(-c3n[nH]c4c3C[C@@H]3C[C@]3(C)C4)[nH]c12` [Example 50, (S)—N-methyl-N-(7-methyl-2-((4aS,5aR)-5a-methyl-1,4,4a,5,5a,6-hexahydrocyclopropa[f]indazol-3-yl)-1H-benzo[d]imidazol-5-yl)-2-morpholinopropanamide] were 126 nM and 97%.
The like results for `Cc1cc(N(C)C(=O)[C@H](C)N2CCOCC2)cc2nc(-c3n[nH]c4c3C[C@@H]3C(F)(F)[C@]3(C)C4)[nH]c12` [Example 51, (S)—N-(2-((4aS,5aR)-5,5-difluoro-5a-methyl-1,4,4a,5,5a,6-hexahydrocyclopropa[f]indazol-3-yl)-7-methyl-1H-benzo[d]imidazol-5-yl)-N-methyl-2-morpholinopropanamide] were, in that order, 19 nM and 97%.
Taken in the same sequence, the figures for `Cc1cc2[nH]c(-c3n[nH]c4c3C[C@@H]3C[C@]3(C)C4)nc2cc1NC(=O)[C@H](C)N1CCOCC1` [Example 52, (S)—N-(6-methyl-2-((4aS,5aR)-5a-methyl-1,4,4a,5,5a,6-hexahydrocyclopropa[f]indazol-3-yl)-1H-benzo[d]imidazol-5-yl)-2-morpholinopropanamide] were 274 nM and 109%.
Consider `C[C@@H](C(=O)N(C)c1cc(C#N)c2[nH]c(-c3n[nH]c4c3C[C@@H]3C[C@]3(C)C4)nc2c1)C1CCOCC1` [Example 55, (R)—N-(7-cyano-2-((4aS,5aR)-5a-methyl-1,4,4a,5,5a,6-hexahydrocyclopropa[f]indazol-3-yl)-1H-benzo[d]imidazol-5-yl)-N-methyl-2-(tetrahydro-2H-pyran-4-yl)propanamide], for which the IC50 in test [1] is 41 nM. For the same molecule, the inhibition at 1 µM in test [2] worked out at 89%.
